{"source": "patent US12246005B2", "about": "“5-methoxy-n,n-dimethyltryptamine (5-MeO-DMT) formulations” (Beckley Psytech Limited, priority 2023, dated 2025)", "key": {"[1]": {"assay": "Thermal decomposition properties of salt forms (TGA)", "type": "physicochemical", "excerpt": "The thermal decomposition properties of a range of salt forms of 5-MeO-DMT has been investigated and is summarised in the report below: […]"}, "[2]": {"assay": "Phase 1 single ascending dose study of liquid intranasal 5-MeO-DMT HCl formulation", "type": "in vivo, human", "settings": "liquid intranasal formulation, 5, 8, 10, 11 and 14 mg, healthy subjects", "excerpt": "(§1) The applicant has funded double-blind, randomized, Phase 1, single ascending dose studies to evaluate the safety, tolerability and pharmacokinetic profile of intranasal 5-MeO-DMT hydrochloride and intranasal 5-MeO-DMT benzoate in healthy subjects. […] It is desirable that a compound for use in treatment has dose-proportional pharmacokinetics, for example, to facilitate dose and dose regimen adjustment in patients. In an embodiment, there is provided a salt of 5-MeO-DMT with dose-proportional pharmacokinetics, optionally for use in the methods disclosed herein. In an embodiment, the salt of 5-MeO-DMT with dose-proportional pharmacokinetics is the benzoate or HBr salt, optionally the benzoate salt. A double-blind, randomized, Phase 1, single ascending dose study to evaluate the safety, tolerability and pharmacokinetic profile of a liquid intranasal 5-MeO-DMT HCl (5-MeO-DMT HCl, HPMC, water for injection (WFI) and a sodium hydroxide solution to adjust pH) formulation in healthy subjects was performed."}, "[3]": {"assay": "Phase 1 single ascending dose study of intranasal 5-MeO-DMT benzoate (safety, tolerability, pharmacokinetics)", "type": "in vivo, human", "excerpt": "as §1\nA double-blind, randomized, Phase 1, single ascending dose study to evaluate the safety, tolerability and pharmacokinetic profile of intranasal 5-MeO-DMT benzoate in healthy subjects was performed."}, "[4]": {"assay": "Solubility studies of lyophilised amorphous form (dissolution rate)", "type": "physicochemical", "excerpt": "Amorphous 5-MeO-DMT salt formulations have been produced via lyophilisation processes. It is noted that in some cases these have low glass transition temperatures. Conversion to a crystalline form may therefore occur, perhaps rapidly."}, "[5]": {"assay": "Irritation tolerability", "settings": "in particular when compared to the chloride salt"}, "[6]": {"assay": "Previous preclinical work in dogs defining maximum exposure limits", "settings": "dog, in vivo"}, "[7]": {"assay": "Hygroscopicity", "type": "physicochemical", "excerpt": "In an embodiment, the formulation is non-hygroscopic. […] Hygroscopicity is the phenomenon of attracting and holding water molecules via either adsorption or absorption from the surrounding environment. Pharmaceuticals that pick up less than 0.2% moisture at 80% RH are considered non hygroscopic. […] Pharmaceuticals that pick up more than 15.0% moisture at 80% RH are considered very hygroscopic. Hygroscopic substances are difficult to handle and costly and burdensome measures must be taken in order to ensure they are not exposed to moisture during process and formulation. Exposed to moisture, hygroscopic substances can take on water and convert to a hydrous form. This presents several disadvantages. First, the hydrous forms may have the disadvantage of being less bioavailable and less dissoluble than the anhydrous forms. Second, the variation in the amount of hydrous versus anhydrous substance from batch to batch could fail to meet specifications set by drug regulatory agencies. […] Fourth, in addition to problems caused by introduction of moisture during the processing of these hygroscopic substances, the potential for absorbance of moisture during storage and handling would adversely affect the dissolubility of the drug substance."}, "[8]": {"settings": "at 20° C. water; cited from earlier work"}}, "note": "Entries after “also recorded” stand apart in the source; their conditions may differ. Structures can show the parent of a compound that is named as a salt.", "data": [{"compound": "5-MeO-DMT glycolate", "values": [{"measurement": "TGA Guidance: decomposition temperature", "setting": "[1]", "result": "Melt 95° C., gross dcomp starts 170 °C"}]}, {"compound": "5-MeO-DMT malate", "values": [{"measurement": "TGA Guidance: decomposition temperature", "setting": "[1]", "result": "Melt 100° C, gross dcomp starts 250 °C"}]}, {"compound": "5-MeO-DMT tartrate", "values": [{"measurement": "TGA Guidance: decomposition temperature", "setting": "[1]", "result": "Melt ~140° C., decomp ~200 °C"}]}, {"compound": "COc1ccc2[nH]cc(CCN(C)C)c2c1.Cl", "note": "[5-MeO-DMT HCl, 5-MeO-DMT hydrochloride]", "values": [{"measurement": "dose proportionality of pharmacokinetics", "setting": "[2]", "result": "does not display dose-proportional pharmacokinetics"}]}, {"compound": "COc1ccc2[nH]cc(CCN(C)C)c2c1.O=C(O)c1ccccc1", "note": "[5-MeO-DMT benzoate]", "values": [{"measurement": "dose proportionality of pharmacokinetics", "setting": "[3]; intranasal single ascending dose, healthy subjects", "result": "exhibits dose-proportional pharmacokinetics; also recorded: approximately dose linear"}, {"measurement": "mean Cmax", "setting": "[3]; intranasal, 12 mg dosage, healthy subjects, plasma 5-MeO-DMT", "result": 29, "unit": "ng/mL"}, {"measurement": "mean Tmax", "setting": "[3]; intranasal, healthy subjects", "result": 9.5, "unit": "min"}, {"measurement": "mean half-life (T1/2)", "setting": "[3]; intranasal, healthy subjects", "result": 21, "unit": "min"}, {"measurement": "TGA Guidance: decomposition temperature", "setting": "[1]", "result": "~220", "unit": "°C"}, {"measurement": "TGA Guidance: mass loss", "setting": "[1]", "result": "full mass loss"}, {"measurement": "dissolution rate", "setting": "[4]", "result": "almost instantaneous dissolution rate"}, {"measurement": "irritation tolerability", "setting": "[5]", "result": "good irritation tolerability"}]}, {"compound": "COc1ccc2[nH]cc(CCN(C)C)c2c1.O=S(=O)(O)c1ccccc1", "note": "[Benzenesulfonate, 5-MeO-DMT benzenesulfonate]", "values": [{"measurement": "TGA Guidance: decomposition temperature", "setting": "[1]", "result": "Melt 76° C., gross dcomp starts 280 °C"}]}, {"compound": "CN(C)CCc1c[nH]c2ccc(O)cc12", "note": "[Bufotenin]", "values": [{"measurement": "detection of metabolite in plasma", "setting": "[3]; after intranasal 5-MeO-DMT benzoate, 6 mg dose level, after the 16 minutes timepoint", "result": "only detected at very low levels"}]}, {"compound": "COc1ccc2[nH]cc(CCN(C)C)c2c1", "note": "[Example 5-MeO-DMT, 5-methoxy-N,N-dimethyltryptamine]", "values": [{"measurement": "AUC", "setting": "[6]; read-out: maximum exposure limit AUC", "result": 220, "unit": "ng·h/mL"}, {"measurement": "Cmax", "setting": "[6]; read-out: maximum exposure limit Cmax", "result": 421, "unit": "ng/mL"}]}, {"compound": "COc1ccc2[nH]cc(CCN(C)C)c2c1", "note": "[Fumarate, 5-MeO-DMT fumarate]", "values": [{"measurement": "TGA Guidance: decomposition temperature", "setting": "[1]", "result": "Decomp around 200 °C"}]}, {"compound": "Br.COc1ccc2[nH]cc(CCN(C)C)c2c1", "note": "[Hydrobromide, 5-MeO-DMT hydrobromide]", "values": [{"measurement": "TGA Guidance: decomposition temperature", "setting": "[1]", "result": "Melt 149° C., gross dcomp starts 220 °C"}, {"measurement": "hygroscopicity", "setting": "[7]", "result": "non-hygroscopic"}]}, {"compound": "COc1ccc2[nH]cc(CCN(C)C)c2c1", "note": "[Ketoglutarate, 5-MeO-DMT ketoglutarate]", "values": [{"measurement": "TGA Guidance: decomposition temperature", "setting": "[1]", "result": "Melt 85° C., gross dcomp starts 170 °C"}]}, {"compound": "COc1ccc2[nH]cc(CCN(C)C)c2c1.O=C(O)C(=O)O", "note": "[Oxalate, 5-MeO-DMT oxalate]", "values": [{"measurement": "TGA Guidance: mass loss", "setting": "[1]", "result": "Melts 176° C., full mass loss"}]}, {"compound": "COc1ccc2[nH]cc(CCN(C)C)c2c1", "note": "[Phosphate, 5-MeO-DMT phosphate]", "values": [{"measurement": "TGA Guidance: decomposition temperature", "setting": "[1]", "result": "Decomp around 200 °C"}]}, {"compound": "COc1ccc2[nH]cc(CCN(C)C)c2c1", "note": "[Saccharinate, 5-MeO-DMT saccharinate]", "values": [{"measurement": "TGA Guidance: decomposition temperature", "setting": "[1]", "result": "Melt 80° C., gross dcomp starts 180 °C"}]}, {"compound": "COc1ccc2[nH]cc(CCN(C)C)c2c1", "note": "[Tosylate, 5-MeO-DMT tosylate]", "values": [{"measurement": "TGA Guidance: decomposition temperature", "setting": "[1]", "result": "Melt 110° C, gross dcomp starts 280 °C ° C."}]}, {"compound": "isomalt", "values": [{"measurement": "Solubility", "setting": "[8]", "result": 42, "unit": "g/100 g solution"}]}]}
